Test results taken from patent publication US20060228297A1, “Thorium-227 for use in radiotherapy of soft tissue disease” (priority 2003, published 2006).

System: patients with metastases to the skeleton from breast or prostate cancer
Assay: Phase IA/IB trials of ^223Ra, single and repeated injection, safety and tolerance (Example 9)
Assay type: in vivo, humans
Procedure: The experiment of Example 8 was carried out with dose metering calibrated to a high accuracy. Dose levels measured at 46, 93, 163, 213, and 250 kBq/kg of ^223Ra were given as single doses and a multiple-dose schedule was also introduced.
Thirty-one patients with metastases to the skeleton, 10 from breast- and 21 from prostate cancer, all, were enrolled in phase IA and phase IB trials. The prostate cancer patients were from 60 to 85 years and had body weights ranging from 50 to 120 kg. All of them had progressive disease considered hormone refractory. The breast cancer patients were from 40 to 70 years, with bodyweight from 50 to 95 kg. All of them were progressing second hormonal and/or chemotherapy. The primary objective was to evaluate the safety and tolerance of ^223Ra.
The follow up period was 8 weeks.
In the single injection trial the following average dose levels were used; 46, 93, 163, 213, and 250-kBq kg^−1 bodyweight (b.w.). Five patients were included at each dose level. Fifteen prostate- and 10 breast cancer patients were included.
In the repeated injection schedule, 6 patients, all with prostate cancer, were included. Three patients were scheduled to receive 5 doses, each of 50 kBq kg^−1 b.w. at three-weeks intervals, and three patients to receive 2 doses, each of 125 kBq kg−1 b.w. at six-weeks intervals.
Radium-223 was produced from ^227Ac/^227Th and purified using Ac-resin to immobilize ^227Ac and ^227Th as described in WO0040275. The product concentrate, i.e., dissolved ^223RaCl2 was tested for radionuclide purity by gamma spectroscopy before further use. A concentrate of the ^223Ra in NaCl and Na Citrate was sent sterile production. Isotonicity, pH, and activity concentration were adjusted; a sample kept aside for pathogen and pyrogen testing, and the final product was filled in sterile vials that were subsequently capped with a sealed rubber membrane penetrable to syringes. The vials were put into lead containers and shipped to the hospitals.
The effect of the radium-223 on neutrophil cell fractions, platelets, white-blood-cell count and Heamoglobin were monitored to give a wide ranging measure of haematological toxicity. […] The results were expressed as the number of patients in the study showing a particular level of toxicity on the CTC Toxicity Grade scale and are set out in Table 6 below.

[1] = Multiple dosing 2 × 125 kBq/kg, n = 3
[2] = Multiple dosing 5 × 50 kBq/kg, n = 3

Compound: [223Ra] [^223Ra, radium-223]
- Haemoglobin, CTC Grade 0: number of patients [1]: 0
- Haemoglobin, CTC Grade 1: number of patients [1]: 1
- Haemoglobin, CTC Grade 2: number of patients [1]: 2
- Neutrophile, CTC Grade 0: number of patients [1]: 3
- Neutrophile, CTC Grade 1: number of patients [1]: 0
- Neutrophile, CTC Grade 2: number of patients [1]: 0
- Neutrophile, CTC Grade 3: number of patients [1]: 0
- Platelets, CTC Grade 0: number of patients [1]: 3
- Platelets, CTC Grade 1: number of patients [1]: 0
- W B C, CTC Grade 0: number of patients [1]: 2
- W B C, CTC Grade 1: number of patients [1]: 0
- W B C, CTC Grade 2: number of patients [1]: 1
- W B C, CTC Grade 3: number of patients [1]: 0
- Haemoglobin, CTC Grade 0: number of patients [2]: 0
- Haemoglobin, CTC Grade 1: number of patients [2]: 2
- Haemoglobin, CTC Grade 2: number of patients [2]: 1
- Neutrophile, CTC Grade 0: number of patients [2]: 1
- Neutrophile, CTC Grade 1: number of patients [2]: 0
- Neutrophile, CTC Grade 2: number of patients [2]: 2
- Neutrophile, CTC Grade 3: number of patients [2]: 0
- Platelets, CTC Grade 0: number of patients [2]: 2
- Platelets, CTC Grade 1: number of patients [2]: 1
- W B C, CTC Grade 0: number of patients [2]: 1
- W B C, CTC Grade 1: number of patients [2]: 0
- W B C, CTC Grade 2: number of patients [2]: 2
- W B C, CTC Grade 3: number of patients [2]: 0
- Haemoglobin, CTC Grade 0: number of patients (Re-treatment, n = 2): 1
- Haemoglobin, CTC Grade 1: number of patients (Re-treatment, n = 2): 1
- Haemoglobin, CTC Grade 2: number of patients (Re-treatment, n = 2): 0
- Neutrophile, CTC Grade 0: number of patients (Re-treatment, n = 2): 2
- Neutrophile, CTC Grade 1: number of patients (Re-treatment, n = 2): 0
- Neutrophile, CTC Grade 2: number of patients (Re-treatment, n = 2): 0
- Neutrophile, CTC Grade 3: number of patients (Re-treatment, n = 2): 0
- Platelets, CTC Grade 0: number of patients (Re-treatment, n = 2): 2
- Platelets, CTC Grade 1: number of patients (Re-treatment, n = 2): 0
- W B C, CTC Grade 0: number of patients (Re-treatment, n = 2): 2
- W B C, CTC Grade 1: number of patients (Re-treatment, n = 2): 0
- W B C, CTC Grade 2: number of patients (Re-treatment, n = 2): 0
- W B C, CTC Grade 3: number of patients (Re-treatment, n = 2): 0
- Haemoglobin, CTC Grade 0: number of patients (Single dose 46 kBq/kg, n = 5): 4
- Haemoglobin, CTC Grade 1: number of patients (Single dose 46 kBq/kg, n = 5): 0
- Haemoglobin, CTC Grade 2: number of patients (Single dose 46 kBq/kg, n = 5): 1
- Neutrophile, CTC Grade 0: number of patients (Single dose 46 kBq/kg, n = 5): 4
- Neutrophile, CTC Grade 1: number of patients (Single dose 46 kBq/kg, n = 5): 0
- Neutrophile, CTC Grade 2: number of patients (Single dose 46 kBq/kg, n = 5): 1
- Neutrophile, CTC Grade 3: number of patients (Single dose 46 kBq/kg, n = 5): 0
- Platelets, CTC Grade 0: number of patients (Single dose 46 kBq/kg, n = 5): 5
- Platelets, CTC Grade 1: number of patients (Single dose 46 kBq/kg, n = 5): 0
- W B C, CTC Grade 0: number of patients (Single dose 46 kBq/kg, n = 5): 4
- W B C, CTC Grade 1: number of patients (Single dose 46 kBq/kg, n = 5): 0
- W B C, CTC Grade 2: number of patients (Single dose 46 kBq/kg, n = 5): 1
- W B C, CTC Grade 3: number of patients (Single dose 46 kBq/kg, n = 5): 0
- Haemoglobin, CTC Grade 0: number of patients (Single dose 93 kBq/kg, n = 5): 2
- Haemoglobin, CTC Grade 1: number of patients (Single dose 93 kBq/kg, n = 5): 2
- Haemoglobin, CTC Grade 2: number of patients (Single dose 93 kBq/kg, n = 5): 1
- Neutrophile, CTC Grade 0: number of patients (Single dose 93 kBq/kg, n = 5): 3
- Neutrophile, CTC Grade 1: number of patients (Single dose 93 kBq/kg, n = 5): 1
- Neutrophile, CTC Grade 2: number of patients (Single dose 93 kBq/kg, n = 5): 1
- Neutrophile, CTC Grade 3: number of patients (Single dose 93 kBq/kg, n = 5): 0
- Platelets, CTC Grade 0: number of patients (Single dose 93 kBq/kg, n = 5): 5
- Platelets, CTC Grade 1: number of patients (Single dose 93 kBq/kg, n = 5): 0
- W B C, CTC Grade 0: number of patients (Single dose 93 kBq/kg, n = 5): 4
- W B C, CTC Grade 1: number of patients (Single dose 93 kBq/kg, n = 5): 0
- W B C, CTC Grade 2: number of patients (Single dose 93 kBq/kg, n = 5): 1
- W B C, CTC Grade 3: number of patients (Single dose 93 kBq/kg, n = 5): 0
- Haemoglobin, CTC Grade 0: number of patients (Single dose 163 kBq/kg, n = 5): 4
- Haemoglobin, CTC Grade 1: number of patients (Single dose 163 kBq/kg, n = 5): 0
- Haemoglobin, CTC Grade 2: number of patients (Single dose 163 kBq/kg, n = 5): 1
- Neutrophile, CTC Grade 0: number of patients (Single dose 163 kBq/kg, n = 5): 3
- Neutrophile, CTC Grade 1: number of patients (Single dose 163 kBq/kg, n = 5): 0
- Neutrophile, CTC Grade 2: number of patients (Single dose 163 kBq/kg, n = 5): 1
- Neutrophile, CTC Grade 3: number of patients (Single dose 163 kBq/kg, n = 5): 1
- Platelets, CTC Grade 0: number of patients (Single dose 163 kBq/kg, n = 5): 4
- Platelets, CTC Grade 1: number of patients (Single dose 163 kBq/kg, n = 5): 1
- W B C, CTC Grade 0: number of patients (Single dose 163 kBq/kg, n = 5): 3
- W B C, CTC Grade 1: number of patients (Single dose 163 kBq/kg, n = 5): 0
- W B C, CTC Grade 2: number of patients (Single dose 163 kBq/kg, n = 5): 1
- W B C, CTC Grade 3: number of patients (Single dose 163 kBq/kg, n = 5): 1
- Haemoglobin, CTC Grade 0: number of patients (Single dose 213 kBq/kg, n = 5): 2
- Haemoglobin, CTC Grade 1: number of patients (Single dose 213 kBq/kg, n = 5): 2
- Haemoglobin, CTC Grade 2: number of patients (Single dose 213 kBq/kg, n = 5): 1
- Neutrophile, CTC Grade 0: number of patients (Single dose 213 kBq/kg, n = 5): 2
- Neutrophile, CTC Grade 1: number of patients (Single dose 213 kBq/kg, n = 5): 1
- Neutrophile, CTC Grade 2: number of patients (Single dose 213 kBq/kg, n = 5): 2
- Neutrophile, CTC Grade 3: number of patients (Single dose 213 kBq/kg, n = 5): 0
- Platelets, CTC Grade 0: number of patients (Single dose 213 kBq/kg, n = 5): 5
- Platelets, CTC Grade 1: number of patients (Single dose 213 kBq/kg, n = 5): 0
- W B C, CTC Grade 0: number of patients (Single dose 213 kBq/kg, n = 5): 2
- W B C, CTC Grade 1: number of patients (Single dose 213 kBq/kg, n = 5): 0
- W B C, CTC Grade 2: number of patients (Single dose 213 kBq/kg, n = 5): 2
- W B C, CTC Grade 3: number of patients (Single dose 213 kBq/kg, n = 5): 1
- Haemoglobin, CTC Grade 0: number of patients (Single dose 250 kBq/kg, n = 5): 2
- Haemoglobin, CTC Grade 1: number of patients (Single dose 250 kBq/kg, n = 5): 3
- Haemoglobin, CTC Grade 2: number of patients (Single dose 250 kBq/kg, n = 5): 0
- Neutrophile, CTC Grade 0: number of patients (Single dose 250 kBq/kg, n = 5): 2
- Neutrophile, CTC Grade 1: number of patients (Single dose 250 kBq/kg, n = 5): 0
- Neutrophile, CTC Grade 2: number of patients (Single dose 250 kBq/kg, n = 5): 2
- Neutrophile, CTC Grade 3: number of patients (Single dose 250 kBq/kg, n = 5): 1
- Platelets, CTC Grade 0: number of patients (Single dose 250 kBq/kg, n = 5): 2
- Platelets, CTC Grade 1: number of patients (Single dose 250 kBq/kg, n = 5): 3
- W B C, CTC Grade 0: number of patients (Single dose 250 kBq/kg, n = 5): 2
- W B C, CTC Grade 1: number of patients (Single dose 250 kBq/kg, n = 5): 0
- W B C, CTC Grade 2: number of patients (Single dose 250 kBq/kg, n = 5): 2
- W B C, CTC Grade 3: number of patients (Single dose 250 kBq/kg, n = 5): 1
- Reversible diarrhoea, grades 1 and 2, share of patients (all dose groups, total): approximately 50%
- Dose-limiting toxicity (dose escalating part, single dose 46 to 250 kBq/kg): not observed
- Thrombocytes, toxicity grade (even at the two highest dose levels): 1 grade
- Vomiting, number of patients (highest dose group): four
- Nausea, number of patients (highest dose level): four
- Neutropenia of maximum grade 3, number of patients (single injection trial): two
- Reversible myelosuppression, nadir after injection (single injection, recovery during the follow-up period): 2-3 weeks
- Additional toxicity related to the repetition of the treatment (three patients in the 50×5 schedule): did not experience any additional toxicity
